Test results taken from patent publication US12139498B1, “Positive allosteric modulators of the muscarinic acetylcholine receptor M4” (Vanderbilt University, priority 2023, dated 2024).

Molecular target: T1, Human M4 (Homo sapiens, UniProt P08173)
T1 sequence (P08173 1-479): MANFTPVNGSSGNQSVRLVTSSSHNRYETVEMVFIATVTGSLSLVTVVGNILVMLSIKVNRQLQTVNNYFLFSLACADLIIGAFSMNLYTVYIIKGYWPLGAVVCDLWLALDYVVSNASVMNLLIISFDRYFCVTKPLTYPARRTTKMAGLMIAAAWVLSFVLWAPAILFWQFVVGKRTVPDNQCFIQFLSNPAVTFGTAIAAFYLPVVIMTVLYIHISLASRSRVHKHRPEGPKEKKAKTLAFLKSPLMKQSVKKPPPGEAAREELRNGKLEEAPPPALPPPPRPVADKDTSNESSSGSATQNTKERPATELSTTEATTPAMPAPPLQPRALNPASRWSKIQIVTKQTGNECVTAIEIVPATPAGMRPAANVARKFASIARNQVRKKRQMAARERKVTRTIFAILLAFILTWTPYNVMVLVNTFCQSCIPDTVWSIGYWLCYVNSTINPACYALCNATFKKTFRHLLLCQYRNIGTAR
Assay: M4 cell-based functional assay (calcium mobilization)
Set-up: expressed in transfected cells
Conditions: for Emax at 30 µM: % ACh maximum at 30 μM; for EC50: CHO-K1 hM4-Gqi5 cells, calcium flux, increase in EC20 acetylcholine response
Experimental: Human (h) and rat (r) M4 CDNAs, along with the chimeric G protein Gqi5, were transfected into Chinese hamster ovary (CHO-K1) cells purchased from the American Type Culture Collection using Lipofectamine2000. The transfected cells were subjected to selection antibiotic treatment to generate stable cell lines; G418 sulfate (1 mg/ml) for selecting M4 expressing cells and Hygromycin B (500 μg/mL) for selecting Gqi5 expressing cells. The resulting polyclones were further screened to obtain monoclones of hM4-Gqi5 and rM4-Gqi5 for compound screening assay. Stable monoclone cells were maintained in Ham's F-12 medium containing 10% heat-inactivated fetal bovine serum (FBS), 1× Antibiotic/Antimycotic, 20 mM HEPES, 500 μg/mL G418 sulfate, and 200 μg/mL Hygromycin B in 37° C. humidified incubators in the presence of 5% CO2.
The high throughput assay was employed to measure receptor-induced mobilization of intracellular calcium to determine compound activity. Test compound was added to cells expressing the muscarinic receptors that were loaded with calcium sensitive fluorescent dye. After a ˜2.5 minute incubation period, a submaximal (EC20) concentration of acetylcholine was added, and the response measured. This kinetic assay allows for simultaneous screening and potency determination of multiple pharmacological modes of action including agonist and potentiator activity. CHO-K1 cells stably expressing muscarinic receptors were plated in growth medium lacking G418 and hygromycin at 15,000 cells/20 μL/well in Greiner 384-well black-walled, tissue culture (TC)-treated, clear-bottom plates (Greiner Bio-One). Cells were incubated overnight at 37° C. and 5% CO2. The next day, calcium assay buffer (Hank's balanced salt solution (HBSS), 20 mM HEPES, 2.5 mM Probenecid, 4.16 mM sodium bicarbonate (Sigma-Aldrich, St. Louis, MO)) was prepared to dilute compounds, agonists, and Fluo-4-acetomethoxyester (Fluo-4-AM), fluorescent calcium indicator dye. Compounds were serially diluted 1:3 into 10 point concentration response curves in DMSO using the Bravo Liquid Handler (Agilent, Santa Clara, CA), transferred to a 384 well daughter plates using an Echo acoustic liquid handler (Beckman Coulter, Indianapolis, Indiana), and diluted in assay Buffer to a 2× final concentration. The agonist plates were prepared using acetylcholine (ACh, Sigma-Aldrich, St. Louis, MO) concentrations for the EC20 and ECMAX responses by diluting in assay buffer to a 5× final concentration. The 2× dye solution (2.3 μM) was prepared by mixing a 2.3 mM Fluo-4-AM stock in DMSO with 10% (w/v) pluronic acid F-127 in a 1:1 ratio in assay buffer. Using a microplate washer (BioTek, Winooski, VT), cells were washed with assay buffer for 3 times to remove medium. After the final wash, 20 μL of assay buffer remained in the cell plates. Immediately, 20 μL of the 2× dye solution (final 1.15 μM) was added to each well of the cell plate using a Multidrop Combi dispenser (Thermo Fisher, Waltham, MA). After cells were incubated with the dye solutions for 45 min at 37° C. in the presence of 5% CO2, the dye solutions were removed and replaced with assay buffer using a microplate washer, leaving 20 μL of assay buffer in the cell plate.
The prepared compound, agonist, and cell plates were placed inside the Functional Drug Screening System uCell (FDSS uCell, Hamamatsu, Japan) to measure the calcium flux.
The triple add protocol was used to measure Ca kinetics; Compound, ACh for EC2O, and ACh for EC80 adds in an order. Briefly, after establishment of a fluorescence baseline for 2 seconds (excitation, 480 nm; emission, 530 nm), first add occurred by adding 20 μL of test compound to the cells, and the response was measured for 140 seconds. This is followed by second add; 10 μL (5×) of an EC20 concentration of ACh agonist was added to the cells, and the response of the cells was measured for 125 seconds. […]

SMILES	Emax at 30 µM [%]	EC50 [nM]
Brc1nc2c(s1)CN(c1ncnc3ccsc13)CC2 [Compound 26, 2-bromo-5-(thieno[3,2-d]pyrimidin-4-yl)-4,5,6,7-tetrahydrothiazolo[5,4-c]pyridine]	98	430
Cn1ccc2c(N3CCc4nc(Br)sc4C3)ncnc21 [Compound 27, 2-bromo-5-(7-methyl-7H-pyrrolo[2,3-d]pyrimidin-4-yl)-4,5,6,7-tetrahydrothiazolo[5,4-c]pyridine]	43	> 10000
Fc1ccc2ncnc(N3CCc4nc(Br)sc4C3)c2c1 [Compound 28, 2-bromo-5-(6-fluoroquinazolin-4-yl)-4,5,6,7-tetrahydrothiazolo[5,4-c]pyridine]	101	45
Clc1ccc2ncnc(N3CCc4nc(Br)sc4C3)c2c1 [Compound 29, 2-bromo-5-(6-chloroquinazolin-4-yl)-4,5,6,7-tetrahydrothiazolo[5,4-c]pyridine]	96	144
Cc1ccc2ncnc(N3CCc4nc(Br)sc4C3)c2c1 [Compound 30, 2-bromo-5-(6-methylquinazolin-4-yl)-4,5,6,7-tetrahydrothiazolo[5,4-c]pyridine]	91	147
COc1ccc2ncnc(N3CCc4nc(Br)sc4C3)c2c1 [Compound 31, 2-bromo-5-(6-methoxyquinazolin-4-yl)-4,5,6,7-tetrahydrothiazolo[5,4-c]pyridine]	68	566
Cc1nc(N2CCc3nc(Br)sc3C2)c2cc(Cl)ccc2n1 [Compound 32, 2-bromo-5-(6-chloro-2-methylquinazolin-4-yl)-4,5,6,7-tetrahydrothiazolo[5,4-c]pyridine]	91	200
Cc1nc(N2CCc3nc(Br)sc3C2)c2cc(F)ccc2n1 [Compound 33, 2-bromo-5-(6-fluoro-2-methylquinazolin-4-yl)-4,5,6,7-tetrahydrothiazolo[5,4-c]pyridine]	99	79
Cc1nc2c(C)c(C)c(N3CCc4nc(Br)sc4C3)nn2c(=O)c1F [Compound 37, 7-(2-bromo-6,7-dihydrothiazolo[5,4-c]pyridin-5(4H)-yl)-3-fluoro-2,8,9-trimethyl-4H-pyrimido[1,2-b]pyridazin-4-one]	81	47
Cc1cc2nc(C)c(C)c(=O)n2nc1N1CCc2nc(Br)sc2C1 [Compound 38, 7-(2-bromo-6,7-dihydrothiazolo[5,4-c]pyridin-5(4H)-yl)-2,3,8-trimethyl-4H-pyrimido[1,2-b]pyridazin-4-one]	80	1180
Cc1cc2nc(C)c(F)c(=O)n2nc1N1CCc2nc(Br)sc2C1 [Compound 40, 7-(2-bromo-6,7-dihydrothiazolo[5,4-c]pyridin-5(4H)-yl)-3-fluoro-2,8-dimethyl-4H-pyrimido[1,2-b]pyridazin-4-one]	85	94

Second part, the compound after the results:

Emax at 30 µM [%]	EC50 [nM]	SMILES
70	6070	Cc1cc2nccc(=O)n2nc1N1CCc2nc(Br)sc2C1 [Compound 34, 7-(2-bromo-6,7-dihydrothiazolo[5,4-c]pyridin-5(4H)-yl)-8-methyl-4H-pyrimido[1,2-b]pyridazin-4-one]
89	291	Cc1cc(=O)n2nc(N3CCc4nc(Br)sc4C3)c(C)cc2n1 [Compound 35, 7-(2-bromo-6,7-dihydrothiazolo[5,4-c]pyridin-5(4H)-yl)-2,8-dimethyl-4H-pyrimido[1,2-b]pyridazin-4-one]
91	37	Cc1cc2nc(C(F)(F)F)cc(=O)n2nc1N1CCc2nc(Br)sc2C1 [Compound 36, 7-(2-bromo-6,7-dihydrothiazolo[5,4-c]pyridin-5(4H)-yl)-8-methyl-2-(trifluoromethyl)-4H-pyrimido[1,2-b]pyridazin-4-one]
88	75	Cc1cc2nc(C(F)F)cc(=O)n2nc1N1CCc2nc(Br)sc2C1 [Compound 39, 7-(2-bromo-6,7-dihydrothiazolo[5,4-c]pyridin-5(4H)-yl)-2-(difluoromethyl)-8-methyl-4H-pyrimido[1,2-b]pyridazin-4-one]
87	418	Cc1cc2nc(C(=O)NCc3cncs3)cc(=O)n2nc1N1CCc2nc(Br)sc2C1 [Compound 42, 7-(2-bromo-6,7-dihydrothiazolo[5,4-c]pyridin-5(4H)-yl)-8-methyl-4-oxo-N-(thiazol-5-ylmethyl)-4H-pyrimido[1,2-b]pyridazine-2-carboxamide]
87	1960	Cc1cc2nc(C(=O)N3CC(C)C3)cc(=O)n2nc1N1CCc2nc(Br)sc2C1 [Compound 43, 7-(2-bromo-6,7-dihydrothiazolo[5,4-c]pyridin-5(4H)-yl)-8-methyl-2-(3-methylazetidine-1-carbonyl)-4H-pyrimido[1,2-b]pyridazin-4-one]
93	2390	COC1CN(C(=O)c2cc(=O)n3nc(N4CCc5nc(Br)sc5C4)c(C)cc3n2)C1 [Compound 44, 7-(2-bromo-6,7-dihydrothiazolo[5,4-c]pyridin-5(4H)-yl)-2-(3-methoxyazetidine-1-carbonyl)-8-methyl-4H-pyrimido[1,2-b]pyridazin-4-one]
85	752	Cc1cc2nc(C(=O)N3CC(C)(F)C3)cc(=O)n2nc1N1CCc2nc(Br)sc2C1 [Compound 45, 7-(2-bromo-6,7-dihydrothiazolo[5,4-c]pyridin-5(4H)-yl)-2-(3-fluoro-3-methylazetidine-1-carbonyl)-8-methyl-4H-pyrimido[1,2-b]pyridazin-4-one]
91	360	Cc1cc2nc(C(=O)NC3(C#N)CC3)cc(=O)n2nc1N1CCc2nc(Br)sc2C1 [Compound 46, 7-(2-bromo-6,7-dihydrothiazolo[5,4-c]pyridin-5(4H)-yl)-N-(1-cyanocyclopropyl)-8-methyl-4-oxo-4H-pyrimido[1,2-b]pyridazine-2-carboxamide]
66	1940	Cc1cc2nc(C(=O)N3CC4(COC4)C3)cc(=O)n2nc1N1CCc2nc(Br)sc2C1 [Compound 47, 7-(2-bromo-6,7-dihydrothiazolo[5,4-c]pyridin-5(4H)-yl)-8-methyl-2-(2-oxa-6-azaspiro[3.3]heptane-6-carbonyl)-4H-pyrimido[1,2-b]pyridazin-4-one]
87	2180	Cc1cc2nc(C(=O)NC3CC(CC(F)(F)F)C3)cc(=O)n2nc1N1CCc2nc(Br)sc2C1 (centres unmarked) [Compound 48, 7-(2-bromo-6,7-dihydrothiazolo[5,4-c]pyridin-5(4H)-yl)-8-methyl-4-oxo-N-(3-(2,2,2-trifluoroethyl)cyclobutyl)-4H-pyrimido[1,2-b]pyridazine-2-carboxamide]
